Common to all, as to assay: NCI-60 cell line screen, 48 h
In assay [1] the test system is RXF 393.
Assay [2] relates to SN12C.
For assay [3], the system named is OVCAR-5.
Assay [4] deals with CCRF-CEM.
In assay [5] the test system is TK-10.
Assay [6] relates to HOP-92.
Assay [7] deals with HL-60.
For assay [8], the system named is Malme-3M.
Assay [9] has as its system COLO 205.
Assay [10] deals with HCT-15.
Assay [11] deals with M14.
In assay [12] the test system is RPMI-8226.
Assay [13] has as its system OVCAR-8.
The subject of assay [14] is SK-MEL-5.
The test system of assay [15] is MOLT-4.
In assay [16] the test system is NCI-H460.
The test system of assay [17] is SNB-19.

The values that follow come from ChEMBL document CHEMBL1201862, “PubChem BioAssay data set” (2004).

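Tested at 5 concentrations; 48 h exposure; 96-well plates; endpoints linearly interpolated, else capped at highest concentration. Here, GI50 denotes the concentration required for 50% inhibition of growth.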 Activity calls are given as the source filed them. No stated cut-off is given here; in the data, active = GI50 up to about 1.1 µM and inactive = higher.

With `O=C1OC(CCCl)(c2ccccc2)CC1CN1CCOCC1` (centres undefined), the GI50 was 17.2 µM (inactive) in assay [1]; 29.2 µM (inactive) in [2]; > 100 µM (inactive) in assay [3]; 11.4 µM (inactive) in assay [4]; 16.4 µM (inactive) in [5]; 16.6 µM (inactive) in assay [6]. Also, the GI50 was 9.77 µM (inactive) in assay [7]; 18.4 µM (inactive) in assay [8]; 18.9 µM (inactive) in [9]; 20.9 µM in assay [10]; 20.4 µM (inactive) in assay [11]; 3.84 µM (inactive) in assay [12]. Moreover, the GI50 in assay [13] is 17.7 µM (inactive); in assay [14], 19.7 µM (inactive); in assay [15], 18 µM (inactive); in assay [16] it was 67.3 µM (inactive).
Take `CC(=O)NNc1ncc(C(=O)/C=C/c2ccccc2C)s1`: the GI50 in assay [1], in [3], in [4], in assay [5], in assay [6] and in assay [17] was > 100 µM (inactive) throughout. Further, the GI50 in assay [7], in assay [8], in assay [9], in [12], in [13] and in assay [14] was > 100 µM (inactive) each time. For the same molecule, the GI50 in assay [15] and in [16] was > 100 µM (inactive) each time.
On to `[O-][S+]1Cc2ccccc2CSS1` (centres undefined), for which the GI50 in assay [1] was 3.85 µM (inactive); in [2], 14.4 µM (inactive); in assay [3], 16.3 µM (inactive); in assay [5] it was 16.8 µM (inactive); in assay [6], 15.6 µM (inactive); in [17], 35.5 µM (inactive). The GI50 in assay [7] was 3.44 µM (inactive); in assay [8], 13 µM (inactive); in assay [9], 14.2 µM (inactive); in assay [10] it was 13 µM; in assay [11] it was 14 µM (inactive); in assay [12], 16.3 µM (inactive). The GI50 in assay [13] is 14.5 µM (inactive); in assay [14] it was 13.5 µM (inactive); in assay [15], 12.6 µM (inactive); in [16], 16.8 µM (inactive).
Turning to `Nc1cccc2c1-c1c(cccc1[N+](=O)[O-])C2=O`, the GI50 in assay [1], in assay [2], in assay [3], in assay [4], in [5] and in [6] was > 100 µM (inactive) each time. Further, the GI50 in assay [17] is > 100 µM (inactive); in [7], > 100 µM (inactive); in assay [8], > 100 µM (inactive); in [9], > 100 µM (inactive); in assay [10] it was > 100 µM; in assay [11] it was > 100 µM (inactive). Also, the GI50 in [12], in [13], in assay [14], in assay [15] and in [16] was > 100 µM (inactive) throughout.
As for `CC(C)/C=C1\CCC(CN2CCCC2)C1=O` (centres undefined), the GI50 is 16 µM (inactive) in assay [1]; 18.7 µM (inactive) in assay [2]; 20 µM (inactive) in [3]; 3.48 µM (inactive) in assay [4]; 10.7 µM (inactive) in assay [5]; 17.5 µM (inactive) in assay [6]. The GI50 in assay [17] is > 41.6 µM (inactive); in assay [7], 3.51 µM (inactive); in assay [8], 6.28 µM (inactive); in assay [9] it was 7.05 µM (inactive); in assay [10] it was 5.05 µM; in assay [11] it was 10.9 µM (inactive). Moreover, the GI50 in [12] is 0.472 µM (active); in [13], 10.4 µM (inactive); in [14] it was 17.1 µM (inactive); in [15], 3.63 µM (inactive); in assay [16], 39 µM (inactive).
For the molecule `COc1cccc(/C=N/C23CC4CC(CC(C4)C2)C3)c1`, the GI50 in assay [1], in [2], in assay [3], in assay [4], in assay [5] and in assay [6] was > 100 µM (inactive) throughout. Moreover, the GI50 in [17] was > 100 µM (inactive); in assay [7], > 100 µM (inactive); in assay [8], > 100 µM (inactive); in [9], > 100 µM (inactive); in assay [10] it was > 100 µM; in assay [11], > 100 µM (inactive). Further, the GI50 in assay [12], in assay [13], in assay [14], in assay [15] and in [16] was > 100 µM (inactive) throughout.
Regarding `COc1ccc(C2(CN(C)C)COc3cc(OC)c(OC)cc3C2=O)cc1OC` (centres undefined), the GI50 in assay [1] was 31.8 µM (inactive); in assay [2] it was 77.1 µM (inactive); in [4], 19.6 µM (inactive); in assay [5], 63.5 µM (inactive); in [6], 79.3 µM (inactive); in assay [17] it was > 100 µM (inactive). The GI50 in [7] was 16.6 µM (inactive); in assay [8], > 100 µM (inactive); in assay [9], 26.6 µM (inactive); in [11] it was 89.3 µM (inactive); in assay [12], 23.5 µM (inactive); in assay [13], 53.1 µM (inactive). The GI50 is 24.1 µM (inactive) in [14], 44.3 µM (inactive) in [15] and 33.9 µM (inactive) in assay [16].
`CCOc1cn(C2OC(CO)C(O)C2O)c(=O)[nH]c1=O` (centres undefined): the GI50 in assay [1], in assay [2], in [3], in assay [4], in assay [5] and in assay [6] was > 100 µM (inactive) in each case. In addition, the GI50 in assay [17] is > 100 µM (inactive); in assay [7], > 100 µM (inactive); in assay [8] it was > 100 µM (inactive); in assay [9] it was 95.5 µM (inactive); in assay [10], > 100 µM; in [11] it was > 100 µM (inactive). The GI50 in [12], in assay [13], in assay [14], in assay [15] and in assay [16] was > 100 µM (inactive) in each case.
As for `CCCCC1(C(NC(=O)c2ccccc2Cl)c2ccncc2)C(=O)N(c2ccccc2)N(c2ccccc2)C1=O` (centres undefined), the GI50 is 37.6 µM (inactive) in assay [1]; 94.4 µM (inactive) in assay [2]; > 100 µM (inactive) in assay [3]; 27.9 µM (inactive) in assay [4]; 41 µM (inactive) in assay [5]; 39.6 µM (inactive) in assay [6]. The GI50 in assay [17] is 77.6 µM (inactive); in [7], 17.6 µM (inactive); in assay [8], 61 µM (inactive); in assay [9], 22.6 µM (inactive); in assay [10], 38.5 µM; in assay [11], 55.7 µM (inactive). The GI50 is 21.2 µM (inactive) in assay [12]; 75 µM (inactive) in assay [13]; 18.1 µM (inactive) in [14]; 11.9 µM (inactive) in [15]; 32.8 µM (inactive) in assay [16].
For the molecule `Cc1cc2c(CC(=O)O)n[nH]c2c(C(=O)O)c1C`, the GI50 in assay [1], in assay [2], in assay [3], in [4], in [5] and in assay [6] was > 100 µM (inactive) each time. The GI50 in assay [17] is > 100 µM (inactive); in assay [7], > 100 µM (inactive); in assay [8], > 100 µM (inactive); in assay [9], > 100 µM (inactive); in assay [10] it was > 100 µM; in assay [12], > 100 µM (inactive). Also, the GI50 in assay [13], in assay [15] and in assay [16] was > 100 µM (inactive) throughout.
`CCc1cccc(C)c1NC(=O)CCc1nnc(SC)o1`: the GI50 in assay [1], in assay [2], in assay [3], in [4], in assay [5] and in assay [6] was > 100 µM (inactive) in each case. The GI50 in assay [17] is > 100 µM (inactive); in assay [7] it was > 100 µM (inactive); in assay [8] it was > 100 µM (inactive); in assay [9], > 100 µM (inactive); in [10], > 100 µM; in [11] it was > 100 µM (inactive). The GI50 in assay [12], in assay [13], in [14], in [15] and in assay [16] was > 100 µM (inactive) each time.
On to `COC1=CC(=O)C2C(C1=O)C(c1ccccc1)[C@H]2C` (some centres undefined), for which the GI50 is > 100 µM (inactive) in [1]; > 100 µM (inactive) in assay [3]; 28.4 µM (inactive) in assay [4]; > 100 µM (inactive) in assay [5]; 25.7 µM (inactive) in assay [6]; > 100 µM (inactive) in assay [17]. The GI50 in [7] was 38.9 µM (inactive); in [8] it was 26.1 µM (inactive); in assay [9] it was > 100 µM (inactive); in assay [10], 18.9 µM; in assay [11], > 100 µM (inactive); in assay [12], 35.9 µM (inactive). Besides, the GI50 in assay [13] is 45.6 µM (inactive); in assay [14] it was 80 µM (inactive); in [15] it was > 10 µM (inactive); in [16] it was > 100 µM (inactive).
